Here are results for three molecules from patent US20090318413A1, “BRONCHIAL SMOOTH MUSCLE REMODELING INVOLVES CALCIUM-DEPENDENT ENHANCED MITOCHONDRIAL BIOGENESIS IN ASTHMA” (UNIVERSITE VICTOR SEGALEN BORDEAUX 2, priority 2008, published 2009).

Test [1] concerns U937, L6, and PC12. Particulars: various cell lines, including U937, L6, and PC12; cited from earlier work.
Test [2] deals with porin. The test can be described thus: Mitochondrial mass by porin content (Western blot) in BSM cells. It is filed as cell-based, human. As to the method:
(§1) To analyze the mitochondrial ultrastructure, BSM cells were growth arrested, as described in the previous section, for 6 d. Three million cells were then collected and centrifuged at 400 g for 5 min. Cell pellets were fixed in 2.5% glutaraldehyde for 2 h at 4° C. and processed for electron microscopy, as described in the previous section. Growth curves were built to assess the role of mitochondria in cell proliferation. For this purpose, 25,000 BSM cells were plated on 75-cm^2 flasks and cultured with 10% FCS-DME containing either 4.5 g/liter galactose or 4.5 g/liter glucose. In another set of experiments, we investigated the effects of 50 μg/liter ethidium bromide (Qbiogene) for up to 33 d, 1.3 g/liter cyclic cGMP (3 mM; Sigma-Aldrich) for up to 6 d, or 0.5 g/liter D600, i.e., methoxyverapamil or gallopamil (1 μM; Sigma-Aldrich) for up to 2 d in 10% FCS-DME containing 4.5 g/liter glucose. For these latter experiments, medium was changed every 24 h, and, at the indicated time, BSM cells were harvested by trypsinization and counted in triplicate using a cytometer.
Whole lysates from BSM cells were collected using 1% Triton X-100 lysis buffer in the presence of 2 mM Na orthovanadate, 1 mM EDTA, 50 μg/ml aprotinin, 100 μM leupeptin, 1 mM 1.4 Dithio-DL-Treitol, and 1 mM amino-ethyl-benzenesulfonyl fluoride hydrochloride (all from Sigma-Aldrich). Cellular extracts were reduced with mercaptoethanol, subjected to electrophoresis on a 10% acrylamide reducing gel, and transferred to PVDF membranes (Immobilon TM-P; Millipore). The immunoblots were then developed using mouse anti-human porin (MitoSciences), mouse anti-human α-actin (Sigma-Aldrich), rabbit anti-human phospho-CaMK-IV, rabbit anti-human PGC-1α, rabbit anti-human NRF-1, or rabbit anti-human mitochondrial transcription factor A (mtTFA; all purchased from Santa Cruz Biotechnology, Inc.) for 14 h at 4° C. For amplification, biotinylated goat secondary antibody anti-mouse IgG (Bio-Rad Laboratories) or anti-rabbit IgG (Santa Cruz Biotechnology, Inc.) for 2 h at room temperature and a streptavidin-biotinylated horseradish peroxidase complex (Dako) were used. […] Blot images were acquired using BioCaptMW (Thermo Fisher Scientific), and band densities were quantified using ImageJ software.

Test [3] deals with endothelial cells. Particulars: cited from earlier work.
For test [4], the system named is BSM cells. Briefly: BSM cell growth curves (cell counting), doubling time and proliferation. Particulars: for doubling time of cell growth: glucose medium + 50 μg/liter ethidium bromide or 3 mM cyclic GMP; for proliferation of BSM cells: glucose medium + ethidium bromide or cyclic GMP. In kind it is cell-based, human. As to the method: as §1
Test [5] concerns BSM cells. Briefly: BrdU incorporation (DNA synthesis) in BSM cells. It is filed as cell-based, human. Particulars: 10% FCS-DME glucose, ethidium bromide or cyclic GMP 24 h. As to the method:
Growth-arrested BSM cells were cultured in 96-well plates for 24 h and stimulated with 10% FCS-DME containing glucose, galactose, ethidium bromide, or cyclic GMP for 24 h or containing D600 for 48 h, as described above. Control BSM cells remained in serum-deprived DME. DNA synthesis was measured using the BrdU kit according to the manufacturer's instructions (Roche). In brief, BSM cells were incubated with 10 μM BrdU for 2 h at 37° C. and fixed for 20 min at room temperature. Cells were denaturized for 30 min and incubated with the anti-BrdU antibody for 2 h at room temperature. Absorbance was measured at 370 nm in a microplate reader in triplicate. Results are expressed as a normalized ratio of BrdU incorporation, i.e. absorbance for test condition divided by absorbance for control serum-deprived condition.

Test [6] concerns vascular smooth muscle cells. The following applies: mesangial cells and various fibroblasts; cited from earlier work.
Test [7] relates to PGC-1α. Briefly: Western blot of PGC-1α in BSM cells. In kind it is cell-based, human. Particulars: asthmatic BSM cells; 1 μM D600 for 48 h. As to the method:
as §1, with “In another set of experiments, we investigated the effects of 50 μg/liter ethidium bromide (Qbiogene) for up to 33 d, 1.3 g/liter cyclic cGMP (3 mM; Sigma-Aldrich) for up to 6 d, or 0.5 g/liter D600, i.e., methoxyverapamil or gallopamil (1 μM; Sigma-Aldrich) for up to 2 d in 10% FCS-DME containing 4.5 g/liter glucose.” left out
(§2) Whole lysates from BSM cells were collected using 1% Triton X-100 lysis buffer in the presence of 2 mM Na orthovanadate, 1 mM EDTA, 50 μg/ml aprotinin, 100 μM leupeptin, 1 mM 1.4 Dithio-DL-Treitol, and 1 mM amino-ethyl-benzenesulfonyl fluoride hydrochloride (all from Sigma-Aldrich). […] Blot images were acquired using BioCaptMW (Thermo Fisher Scientific), and band densities were quantified using ImageJ software.

The subject of test [8] is mtTFA. The test can be described thus: Western blot of mtTFA in BSM cells. In kind it is cell-based, human. The following applies: asthmatic BSM cells; 1 μM D600 for 48 h. How it is done:
as §1, with “In another set of experiments, we investigated the effects of 50 μg/liter ethidium bromide (Qbiogene) for up to 33 d, 1.3 g/liter cyclic cGMP (3 mM; Sigma-Aldrich) for up to 6 d, or 0.5 g/liter D600, i.e., methoxyverapamil or gallopamil (1 μM; Sigma-Aldrich) for up to 2 d in 10% FCS-DME containing 4.5 g/liter glucose.” left out
as §2

For test [9], the system named is CaMK-IV. Briefly: Western blot of phosphorylated CaMK-IV in BSM cells. It is filed as cell-based, human. Particulars: asthmatic BSM cells; 1 μM D600. As to the method:
as §1, with “In another set of experiments, we investigated the effects of 50 μg/liter ethidium bromide (Qbiogene) for up to 33 d, 1.3 g/liter cyclic cGMP (3 mM; Sigma-Aldrich) for up to 6 d, or 0.5 g/liter D600, i.e., methoxyverapamil or gallopamil (1 μM; Sigma-Aldrich) for up to 2 d in 10% FCS-DME containing 4.5 g/liter glucose.” left out
as §2

Test [10] has as its system BSM cells. Briefly: Microspectrofluorimetry of intracellular calcium (indo-1) after acetylcholine stimulation. In kind it is cell-based, human. The following applies: asthmatic BSM cells; 10^-5 M acetylcholine; 1 μM D600 with 2 mM Ca2+, or 400 μM EGTA without extracellular calcium. As to the method:
Change in growth-arrested BSM cell intracellular calcium concentration ([Ca^2+]i), was assessed using the Ca^2+-sensitive probe indo-1, as previously described (Berger et al., J. Appl. Physiol. 91:995-1003 (2001); Trian et al., Am. J. Respir. Cell Mol. Biol. 34:49-55 (2006)). In brief, cells were loaded with indo-1 (Calbiochem) and mounted in a perfusion chamber continuously perfused with phosphate salt solution containing either 2 mM Ca2+ in the absence or presence of 1 μM D600, or 400 μM EGTA (Sigma-Aldrich) in the absence of extracellular calcium. BSM cells were stimulated with 10^−5 M acetylcholine or histamine (both from Sigma-Aldrich). Individual cell calcium levels were monitored continuously. Results were expressed as the mean±the SEM of resting or peak of [Ca^2+]i rises (in […]) and area under the curves (nanomoles/second). Experiments were carried out at room temperature (22-25° C.).

Test [11] concerns NRF-1. Briefly: Western blot of NRF-1 in BSM cells. In kind it is cell-based, human. Particulars: asthmatic BSM cells; 1 μM D600 for 48 h. How it is done:
as §1, with “In another set of experiments, we investigated the effects of 50 μg/liter ethidium bromide (Qbiogene) for up to 33 d, 1.3 g/liter cyclic cGMP (3 mM; Sigma-Aldrich) for up to 6 d, or 0.5 g/liter D600, i.e., methoxyverapamil or gallopamil (1 μM; Sigma-Aldrich) for up to 2 d in 10% FCS-DME containing 4.5 g/liter glucose.” left out
as §2

Like-named read-outs stand apart in the source and are kept apart here.

With `Nc1nc2c(ncn2[C@@H]2O[C@@H]3COP(=O)(O)O[C@H]3[C@H]2O)c(=O)[nH]1` [cyclic GMP], the “PGC-1α and mitochondrial biogenesis” value in test [1] is “activate”. For the same molecule, the “mitochondrial content (amount of porin)” value in test [2] (COPD BSM cells, ethidium bromide or cyclic GMP 6 d) was “increased”; in [2] (asthmatic BSM cells, ethidium bromide or cyclic GMP 6 d, 1 μM D600 48 h), “failed to additionally increase”; in test [2] (control BSM cells, ethidium bromide or cyclic GMP 6 d), “increased”. Moreover, the “proliferation of endothelial cells” value in test [3] is recorded as “increased”. The “doubling time of cell growth” value in [4] (COPD BSM cells) is given as “significantly decreased”; in test [4] (asthmatic BSM cells), “had no effect”; in test [4] (control BSM cells) it was “decreased”. For the same molecule, the “proliferation of BSM cells” value in [4] (COPD BSM cells) is reported as “increased”; in test [4] (asthmatic BSM cells), “had no effect”; in test [4] (control BSM cells), “increased”. In addition, the BrdU incorporation entry in test [5] (COPD BSM cells) and in [5] (control BSM cells) was “increased” each time. Besides, the proliferation result in test [6] was “inhibit”.
Regarding “5-[2-(3,4-dimémethoxyphenyl)ethyl-methylamino]-2-propan-2-yl-2-(3,4,5-triméthoxyphenyl)pentanenitrile hydrochloride [D600]”, the “activation of mitochondrial biogenesis through PGC-α” value in test [7] is recorded as “inhibited”. The “mitochondrial content (amount of porin)” value in test [2] is reported as “blocks”. Further, the “activation of mitochondrial biogenesis through mtTFA” value in test [8] is “inhibited”. Moreover, the “activation (phosphorylation) of CaMK-IV” value in test [9] is “inhibited”. Moreover, the “abnormal calcium response (area under the curve) to acetylcholine” value in [10] is “abolished”. In test [5] (asthmatic BSM cells, 1 μM D600 48 h), the BrdU incorporation entry is “significantly inhibited”. Moreover, the “activation of mitochondrial biogenesis through NRF-1” value in test [11] is recorded as “inhibited”.
For the molecule `O=C(O)CN(CCOCCOCCN(CC(=O)O)CC(=O)O)CC(=O)O` [EGTA], the “abnormal calcium response (area under the curve) to acetylcholine” value in [10] is recorded as “abolished”.
